# From BindingDB's records for doi:10.1021/jm00195a008 (1979)
# Target: DNA-directed RNA polymerase subunit alpha/beta/beta'/omega (Escherichia coli (strain K12), UniProt P0A7Z4+P0A800+P0A8T7+P0A8V2)
# Experiment: Inhibition of Escherichia coli DNA-dependent RNA polymerase
# Chain of DNA-directed RNA polymerase subunit alpha/beta/beta'/omega (P0A8V2 whole entry): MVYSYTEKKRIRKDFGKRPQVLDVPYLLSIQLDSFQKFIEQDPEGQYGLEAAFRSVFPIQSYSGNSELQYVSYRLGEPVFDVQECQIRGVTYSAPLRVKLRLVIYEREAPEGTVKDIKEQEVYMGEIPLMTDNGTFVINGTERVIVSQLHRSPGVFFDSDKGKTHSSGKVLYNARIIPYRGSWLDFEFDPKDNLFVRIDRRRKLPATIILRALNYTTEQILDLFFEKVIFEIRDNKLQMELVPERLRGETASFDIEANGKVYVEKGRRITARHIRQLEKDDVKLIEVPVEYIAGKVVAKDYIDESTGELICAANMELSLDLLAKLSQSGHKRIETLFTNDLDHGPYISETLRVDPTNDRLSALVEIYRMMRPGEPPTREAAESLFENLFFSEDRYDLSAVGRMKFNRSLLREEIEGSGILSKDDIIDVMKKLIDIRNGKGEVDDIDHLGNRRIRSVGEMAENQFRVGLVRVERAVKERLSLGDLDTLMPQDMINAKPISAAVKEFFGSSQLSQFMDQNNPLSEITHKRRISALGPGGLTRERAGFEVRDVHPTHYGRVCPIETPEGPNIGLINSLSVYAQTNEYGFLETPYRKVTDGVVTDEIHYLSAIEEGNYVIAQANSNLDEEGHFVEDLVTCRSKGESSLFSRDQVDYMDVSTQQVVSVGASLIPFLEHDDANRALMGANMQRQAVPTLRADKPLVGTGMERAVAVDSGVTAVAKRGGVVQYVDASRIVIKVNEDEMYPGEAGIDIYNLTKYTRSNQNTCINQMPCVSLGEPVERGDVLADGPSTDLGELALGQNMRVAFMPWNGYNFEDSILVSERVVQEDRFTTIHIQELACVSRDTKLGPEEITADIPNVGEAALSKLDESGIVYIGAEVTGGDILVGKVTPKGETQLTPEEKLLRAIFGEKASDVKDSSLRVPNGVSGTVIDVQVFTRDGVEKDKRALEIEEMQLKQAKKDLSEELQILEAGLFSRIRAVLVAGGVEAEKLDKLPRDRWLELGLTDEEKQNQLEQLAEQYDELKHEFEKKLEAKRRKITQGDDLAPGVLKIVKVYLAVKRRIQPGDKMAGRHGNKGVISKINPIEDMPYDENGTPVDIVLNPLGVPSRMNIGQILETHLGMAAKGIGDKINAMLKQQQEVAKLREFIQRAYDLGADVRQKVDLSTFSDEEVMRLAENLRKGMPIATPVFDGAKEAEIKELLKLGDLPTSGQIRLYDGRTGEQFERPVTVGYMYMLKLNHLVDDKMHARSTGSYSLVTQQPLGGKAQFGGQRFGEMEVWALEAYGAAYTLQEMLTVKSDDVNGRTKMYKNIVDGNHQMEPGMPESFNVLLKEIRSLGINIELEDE
# Chain of DNA-directed RNA polymerase subunit alpha/beta/beta'/omega (P0A7Z4 whole entry): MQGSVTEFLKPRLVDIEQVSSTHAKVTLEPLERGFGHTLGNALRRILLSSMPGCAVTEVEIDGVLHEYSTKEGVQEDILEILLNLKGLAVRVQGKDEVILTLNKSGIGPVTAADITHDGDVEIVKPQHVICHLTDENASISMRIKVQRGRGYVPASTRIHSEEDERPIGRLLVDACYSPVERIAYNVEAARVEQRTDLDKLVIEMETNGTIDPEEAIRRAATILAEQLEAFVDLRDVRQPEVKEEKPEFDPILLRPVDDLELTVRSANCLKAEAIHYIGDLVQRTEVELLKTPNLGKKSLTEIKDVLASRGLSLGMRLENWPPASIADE
# Chain of DNA-directed RNA polymerase subunit alpha/beta/beta'/omega (P0A8T7 whole entry): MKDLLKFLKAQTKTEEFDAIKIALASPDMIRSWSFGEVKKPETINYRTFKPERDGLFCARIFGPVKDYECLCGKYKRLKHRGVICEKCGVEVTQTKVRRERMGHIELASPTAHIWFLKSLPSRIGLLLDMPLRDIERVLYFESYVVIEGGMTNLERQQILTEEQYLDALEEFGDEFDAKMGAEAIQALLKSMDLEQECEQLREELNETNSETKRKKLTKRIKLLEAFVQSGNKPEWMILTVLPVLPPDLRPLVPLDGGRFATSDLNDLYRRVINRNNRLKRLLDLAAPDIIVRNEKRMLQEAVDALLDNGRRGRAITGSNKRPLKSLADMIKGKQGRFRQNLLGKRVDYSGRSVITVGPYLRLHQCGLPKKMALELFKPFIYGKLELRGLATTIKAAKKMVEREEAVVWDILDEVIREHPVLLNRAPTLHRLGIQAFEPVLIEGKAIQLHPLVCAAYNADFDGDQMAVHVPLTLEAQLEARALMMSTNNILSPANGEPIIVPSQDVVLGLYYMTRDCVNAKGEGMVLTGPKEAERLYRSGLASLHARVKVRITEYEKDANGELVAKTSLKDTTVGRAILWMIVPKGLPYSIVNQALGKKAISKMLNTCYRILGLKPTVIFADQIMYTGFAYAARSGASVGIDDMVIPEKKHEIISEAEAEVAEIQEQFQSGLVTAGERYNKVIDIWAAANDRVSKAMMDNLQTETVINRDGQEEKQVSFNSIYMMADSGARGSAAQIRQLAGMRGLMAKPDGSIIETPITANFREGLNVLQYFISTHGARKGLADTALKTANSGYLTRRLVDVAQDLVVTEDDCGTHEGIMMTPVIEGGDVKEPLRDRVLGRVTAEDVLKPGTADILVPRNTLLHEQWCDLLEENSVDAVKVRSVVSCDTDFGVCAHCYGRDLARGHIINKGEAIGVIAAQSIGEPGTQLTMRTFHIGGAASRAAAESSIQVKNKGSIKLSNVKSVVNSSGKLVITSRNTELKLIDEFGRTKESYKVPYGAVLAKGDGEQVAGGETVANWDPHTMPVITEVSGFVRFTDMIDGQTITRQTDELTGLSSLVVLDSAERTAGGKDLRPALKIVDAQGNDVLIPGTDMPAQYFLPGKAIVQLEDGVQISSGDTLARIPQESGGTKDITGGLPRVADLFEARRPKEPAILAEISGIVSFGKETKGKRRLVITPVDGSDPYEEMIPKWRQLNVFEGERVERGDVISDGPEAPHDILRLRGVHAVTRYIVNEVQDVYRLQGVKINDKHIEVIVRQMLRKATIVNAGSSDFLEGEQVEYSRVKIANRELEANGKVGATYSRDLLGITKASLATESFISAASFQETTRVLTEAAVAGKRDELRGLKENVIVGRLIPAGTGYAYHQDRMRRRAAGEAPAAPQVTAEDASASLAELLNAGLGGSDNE
# Chain of DNA-directed RNA polymerase subunit alpha/beta/beta'/omega (P0A800 whole entry): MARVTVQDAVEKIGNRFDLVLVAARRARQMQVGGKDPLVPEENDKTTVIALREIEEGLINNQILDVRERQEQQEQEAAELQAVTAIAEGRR
structure (smiles),measurement,value
Cc1c2oc3c(C)ccc(C(=O)N[C@@H]4C(=O)N[C@H](C(C)C)C(=O)N5CCC[C@H]5C(=O)N(C)CC(=O)N(C)[C@@H](C(C)C)C(=O)O[C@@H]4C)c3nc-2c(C(=O)N[C@@H]2C(=O)N[C@H](C(C)C)C(=O)N3CCC[C@H]3C(=O)N(C)CC(=O)N(C)[C@@H](C(C)C)C(=O)O[C@@H]2C)c(NC2CC(C)(C)[N+]([O-])C(C)(C)C2)c1=O,IC50,2800 nM
